Laboratory results published in patent publication US20190008803A1, “COMBINATIONS OF OPIOID RECEPTOR LIGANDS AND CYTOCHROME P450 INHIBITORS” (TREVENA, INC., priority 2015, published 2019).

Legend:
mice = test: Hot plate assay for antinociception, subcutaneous dosing; type: in vivo, mouse; conditions: for ED50: 0.5 h, re-tested 30 min after drug administration; for ED50 / analgesic effect in the mouse hot plate assay compared to morphine: SC
Method: The hot plate assay is adapted from the procedure originally described by O'Callaghan and Holtzman (JPET, 192, 497, 1975) and is commonly used to determine the potential analgesic efficacy of opioid agonists. The antinociceptive effect of the composition(s) described herein in the hot plate is expressed in % MPE (Maximum Possible Effect).
Rats (175-250 g) or mice (20-30 g) acclimated to the vivarium for at least 48 hr prior to behavioral testing. Test drugs were administered by the subcutaneous (SC) route. Animals were placed on the hot plate, which the temperature was set at 50-56° C., depending on the in vitro potency of the compound. A cutoff time of 30-60 seconds was used depending on the temperature of the hot plate so that the paws of the animal displaying analgesia, was not damaged by the heat stimulus. The cutoff time was considered a 100% response to the thermal insult. Prior to drug treatment, each animal was tested to determine the baseline response. Thirty minutes after drug administration, animals were re-tested. Dose response experiments were performed to evaluate the potency of the test compound when various doses were administered at the point when maximal analgesia is observed.
The % MPE was calculated according to the following formula:
% MPE=[(Post drug latency−baseline latency)/(60 or 30−baseline latency)]×100
ED50 values were calculated from the mean % MPE values for each group using log dose-response curves by least-squares regression analysis.

CYP2D6 = target: T1, CYP2D6 (Homo sapiens, UniProt P10635); test: Metabolic stability in human liver microsomes with/without quinidine: percent contribution of CYP2D6; type: in vitro ADME; conditions: human liver microsomes 0.25 mg/mL, test compound 1 μM, quinidine 1 μM; from intrinsic clearance without and with inhibitor
T1 construct: incubations of test compound (1 μM) with human liver microsomes (0.25 mg/mL); from tissue; host or cells: human liver microsomes
Method: (§1) Compounds 141, 208, 246, 265, 267, 271 or 277 were analyzed to determine whether they are metabolized by CYP2D6 and/and/or CYP3A4. The studies were designed to evaluate the metabolic stability of compounds in human liver microsomes for the purpose of determining the percent contribution of CYP2D6 and CYP3A4 to their in vitro metabolism. […] Incubations are performed with or without CYP specific inhibitors. Incubations with the CYP2D6 direct inhibitor, quinidine (1 μM) quantify the percent contribution of CYP2D6 to metabolism. Incubations with the CYP3A4 metabolism-dependent inhibitor, troleandomycin (50 μM), define the percent contribution of CYP3A4. The percentage of CYP2D6 and CYP3A4 contribution is calculated using intrinsic clearance values in the absence and presence of the specific CYP inhibitor (Gibbs et al. 2006).

CYP3A4 = target: T2, CYP3A4 (Homo sapiens, UniProt P08684); test: Metabolic stability in human liver microsomes with/without troleandomycin: percent contribution of CYP3A4; type: in vitro ADME; conditions: human liver microsomes 0.25 mg/mL, test compound 1 μM, troleandomycin 50 μM; from intrinsic clearance without and with inhibitor
T2 construct: incubations of test compound (1 μM) with human liver microsomes (0.25 mg/mL); from tissue; host or cells: human liver microsomes
Method: as §1

[1] = Oral availability in humans with low versus normal CYP2D6 activity; type: in vivo; conditions: human with low CYP2D6 activity compared to humans with normal CYP2D6 activity (data not shown)

T2 sequence (P08684 whole entry): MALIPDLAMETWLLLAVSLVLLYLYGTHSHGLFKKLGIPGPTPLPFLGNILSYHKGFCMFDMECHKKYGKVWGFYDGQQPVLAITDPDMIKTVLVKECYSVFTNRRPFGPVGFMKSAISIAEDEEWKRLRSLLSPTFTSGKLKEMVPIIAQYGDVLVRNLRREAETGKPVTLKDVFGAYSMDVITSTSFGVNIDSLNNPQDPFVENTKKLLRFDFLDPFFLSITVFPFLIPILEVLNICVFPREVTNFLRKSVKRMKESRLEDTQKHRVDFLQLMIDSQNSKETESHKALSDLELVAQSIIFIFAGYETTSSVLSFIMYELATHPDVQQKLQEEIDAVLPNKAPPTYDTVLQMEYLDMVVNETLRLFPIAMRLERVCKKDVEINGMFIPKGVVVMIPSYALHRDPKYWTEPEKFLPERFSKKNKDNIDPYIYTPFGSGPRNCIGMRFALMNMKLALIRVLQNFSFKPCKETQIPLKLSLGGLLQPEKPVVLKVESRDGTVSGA
T1 sequence (P10635 whole entry): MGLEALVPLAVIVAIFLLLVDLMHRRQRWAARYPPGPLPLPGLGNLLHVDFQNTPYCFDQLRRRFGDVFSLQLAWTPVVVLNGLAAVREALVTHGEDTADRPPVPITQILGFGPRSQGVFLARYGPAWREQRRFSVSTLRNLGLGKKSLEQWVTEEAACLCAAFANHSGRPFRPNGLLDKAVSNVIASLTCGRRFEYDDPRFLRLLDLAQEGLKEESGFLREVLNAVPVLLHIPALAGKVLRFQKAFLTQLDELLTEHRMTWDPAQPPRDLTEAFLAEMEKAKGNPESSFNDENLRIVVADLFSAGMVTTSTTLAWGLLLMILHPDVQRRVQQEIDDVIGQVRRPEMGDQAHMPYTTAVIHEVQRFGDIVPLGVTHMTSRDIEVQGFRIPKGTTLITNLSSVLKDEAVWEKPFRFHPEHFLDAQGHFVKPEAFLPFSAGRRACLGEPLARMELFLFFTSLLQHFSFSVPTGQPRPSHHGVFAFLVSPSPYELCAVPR

Compound | ED50 (mice; mouse hot plate) | CYP2D6 contribution (CYP2D6) | CYP3A4 contribution (CYP3A4) | also measured
Cc1ccc(CNCC[C@@]2(c3ccc(F)cc3)CCOC3(CCCC3)C2)s1 [Compound 145] | 5.9 mg/kg |  |  | 
FC(F)(F)c1ccnc(CNCC[C@@]2(c3ccccn3)CCOC3(CCCC3)C2)c1 [Compound 277] |  | >20% | >50% | 
CN1CC[C@]23c4c5ccc(O)c4O[C@H]2[C@@H](O)C=C[C@H]3[C@H]1C5 [Morphine, reference compound] | 3.8 mg/kg |  |  | efficacy in the mouse hot plate (mice; at a dose of 10 mg/kg SC): full efficacy
FC(F)(F)c1cncc(CNCC[C@@]2(c3ccccn3)CCOC3(CCCC3)C2)c1 [Compound 271] |  | 3% | 45% | 
Cc1cccc(CNCC[C@@]2(c3ccc(F)cc3)CCOC3(CCCC3)C2)c1 [Compound 122, {2-[(9R)-9-(4-fluorophenyl)-6-oxaspiro[4.5]decan-9-yl]ethyl}[(3-methylphenyl)methyl]amine] | 1.1 mg/kg |  |  | analgesic effect in the mouse hot plate assay compared to morphine (mice): more robust analgesic effect
COc1ccsc1CNCC[C@@]1(c2ccccn2)CCOC2(CCCC2)C1 [Compound 140, [(3-methoxythiophen-2-yl)methyl]({2-[(9R)-9-(pyridin-2-yl)-6-oxaspiro[4.5]decan-9-yl]ethyl})amine] |  | 50% | 50% | oral availability [1]: substantially higher oral availability
Fc1cncc(CNCC[C@@]2(c3ccccn3)CCOC3(CCCC3)C2)c1 [Compound 265] |  |  | >50% | 
Fc1ccc([C@]2(CCNCc3ccccc3)CCOC3(CCCC3)C2)cc1 [Compound 81, benzyl({2-[(9R)-9-(4-fluorophenyl)-6-oxaspiro[4.5]decan-9-yl]ethyl})amine] |  |  |  | % MPE (mice; mouse hot plate, at 10 mg/kg SC): 100% at 10
Cc1cccc(CNCC[C@@]2(c3ccccn3)CCOC3(CCCC3)C2)c1 [Compound 246] |  | 80% | 25% | 
Brc1csc(CNCC[C@@]2(c3ccccn3)CCOC3(CCCC3)C2)c1 [Compound 208] |  | 3% | 17% | 
c1ccc(CNCC[C@@]2(c3ccccn3)CCOC3(CCCC3)C2)cc1 [Compound 28] | 1.2 mg/kg |  |  | analgesic effect in the mouse hot plate assay compared to morphine (mice): more robust analgesic effect
Clc1cncc(CNCC[C@@]2(c3ccccn3)CCOC3(CCCC3)C2)c1 [Compound 267] |  | 8% | 55% | 
